Data on two molecules can be found in patent publication US20240197719A1 (priority 2018, published 2024).

For data set [1] the following is noted: in vivo, iv; cited from earlier work.
For data set [2] the following is noted: in vivo; cited from earlier work.
For data set [3] the following is noted: in vivo.

Structures are written as SMILES.

As to `C=C1CC[C@@]2(O)[C@H]3Cc4ccc(O)c5c4[C@@]2(CCN3CC2CC2)[C@H]1O5` [Nalmefene, 17-cyclopropylmethyl-4,5α-epoxy-6-methylenemorphinan-3,14-diol], the reported half-life in data set [1] is 8 to 10.8 h. In data set [2], the “incidence of adverse events” value is listed as “less than 1%” and the “incidence of common adverse reactions” value is on record as “greater than 1%”.
In the case of `O=C1CC[C@@]2(O)[C@H]3Cc4ccc(O)c5c4[C@@]2(CCN3CC2CC2)[C@H]1O5` [naltrexone], the AUC result in data set [3] was “increased significantly”.
